Data as given in PubChem BioAssay (NCI).
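In this assay, cells in 96-well plates receive the compound at five concentrations for 48 hours. Endpoints are linearly interpolated between the surrounding concentrations. Definition used: TGI = concentration required for complete inhibition of growth.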

Columns and labels:
Test in all cases: DTP human tumour cell line panel, 48 h
U251 CNS = tested on: U251 CNS
HOP-92 NSCLC = tested on: HOP-92 NSCLC
SK-OV-3 ovarian = tested on: SK-OV-3 ovarian
MDA-N = tested on: MDA-N
ACHN renal = tested on: ACHN renal
SF-539 CNS = tested on: SF-539 CNS
CCRF-CEM leukemia = tested on: CCRF-CEM leukemia
MOLT-4 leukemia = tested on: MOLT-4 leukemia
RXF 393 renal = tested on: RXF 393 renal
SF-268 CNS = tested on: SF-268 CNS
T-47D breast = tested on: T-47D breast

| Compound | TGI (U251 CNS) | TGI (HOP-92 NSCLC) | TGI (SK-OV-3 ovarian) | TGI (MDA-N) | TGI (ACHN renal) | TGI (SF-539 CNS) | TGI (CCRF-CEM leukemia) | TGI (MOLT-4 leukemia) | TGI (RXF 393 renal) | TGI (SF-268 CNS) | TGI (T-47D breast) |
| --- | --- | --- | --- | --- | --- | --- | --- | --- | --- | --- | --- |
| CC(C)CC(NC(=O)C(COc1ccc([N+](=O)[O-])cc1)Cc1ccccc1)C(=O)Nc1ccccc1 (stereo not drawn) | 28.7 µM | 34.2 µM | 28.5 µM | > 100 µM | > 100 µM | 18.9 µM | > 100 µM | > 100 µM | 41.6 µM |  |  |
| Cc1ccc([N+](=O)[O-])cc1NC(=O)C(=O)C1CCC2=C(Sc3ccccc3N2)C1=O (stereo not drawn) | > 100 µM | > 100 µM | > 100 µM | > 100 µM | > 100 µM | > 100 µM | > 100 µM | > 100 µM | > 100 µM | > 100 µM |  |
| COC(=O)C1[C@H](C(=O)OC)C1(Br)CBr (stereo partly drawn) | > 100 µM | > 100 µM | > 100 µM | > 100 µM | > 100 µM | > 100 µM |  | > 100 µM | > 100 µM | > 100 µM | > 100 µM |
| CCCCCCc1cn([C@H]2C[C@H](O)[C@@H](CO)O2)c(=O)[nH]c1=O | > 100 µM | > 100 µM |  |  |  | > 100 µM | > 100 µM |  | > 100 µM | > 100 µM |  |
| CCOC(=O)c1cc(-c2ccn(C(C)=O)c2)c(-c2cc(C)co2)[nH]1 | > 100 µM |  |  | > 100 µM | > 100 µM |  | > 100 µM | > 100 µM | > 100 µM | > 100 µM | > 100 µM |
| O=C1OC(c2ccccc2)=N/C1=C/N1CCCC1C(=O)O (stereo not drawn) | > 100 µM | > 100 µM | > 100 µM |  | > 100 µM | > 100 µM | > 100 µM |  | > 100 µM | > 100 µM |  |
| C=C1C(=O)O[C@H]2C/C(C=O)=C\[C@H]3O[C@H]3/C(COC(=O)C(C)C)=C/CC12 (stereo partly drawn) | 19.6 µM |  |  | 13.4 µM | 6.59 µM | 47.3 µM | 6.63 µM | 10.6 µM | 14 µM |  | 7 µM |
| O=C(NCCCCNCCCNC(=O)OCc1ccccc1)OCc1ccccc1 | > 100 µM | 87.3 µM | > 100 µM |  | > 100 µM | 43.1 µM | 82.1 µM | 73.6 µM | 66.6 µM | > 100 µM | 57.8 µM |
| C=C1C(=O)O[C@H]2[C@H]([C@H](C)CCCC(C)=O)O[C@H]([C@@]3(C)CCC(=O)O3)C[C@@H]12 | > 100 µM | > 100 µM | > 100 µM | > 100 µM | > 100 µM | > 100 µM | 83.5 µM | > 100 µM |  | 9.34 µM | > 100 µM |
| CCOC(=O)c1cn(C)nc1N/C(C)=C\C(=O)c1ccccc1 | > 100 µM | > 100 µM | > 100 µM |  | > 100 µM | > 100 µM | > 100 µM | > 100 µM |  | > 100 µM | > 100 µM |
| N#Cc1c(-c2ccc(Cl)cc2)cc(-c2nc3ccccc3[nH]2)nc1N |  | 26.3 µM | 77.4 µM | 23.7 µM | 45.2 µM | 31.7 µM | 45.3 µM | 26.8 µM |  | 34.6 µM | 19.4 µM |
| CC(=O)O[C@H]1C(=O)[C@@]2(C)C(C(OC(=O)c3ccccc3)[C@]3(O)CC(OC(=O)C(O)C(NC(=O)c4ccccc4)c4ccc(C)cc4)C(C)=C1C3(C)C)[C@]1(OC(C)=O)CO[C@@H]1C[C@@H]2O (stereo partly drawn) | 0.264 µM | 11.3 µM | 0.0962 µM |  | > 25 µM | 0.0652 µM | 9.81 µM | 5.82 µM | 0.13 µM | > 25 µM |  |
| CCOC(=O)C1=C(C)N(c2ccc(C)cc2)C2(O)C=CC(=O)C3=C(O)c4ccccc4C(=O)C312 (stereo not drawn) | > 100 µM | 45.4 µM | > 100 µM | 69.5 µM | 50.1 µM | 44.1 µM | > 100 µM | 1.26 µM | 62.1 µM | > 100 µM |  |
| Cc1ccc2c(=O)c(C(=O)N(CCO)CCO)c[nH]c2n1 | > 100 µM |  |  | > 100 µM | > 100 µM |  | > 100 µM | > 100 µM | > 100 µM | > 100 µM | > 100 µM |
| CC1(C)N=C(N)N=C(N)N1c1ccc(OCCCOc2ccccc2)c(Cl)c1 | 11.2 µM | 3.83 µM | 35.1 µM |  |  | 15.5 µM | 29.7 µM | 16.8 µM | 22.8 µM | 13.5 µM |  |
| COc1cccc2c1[C@]1(O)C(O)CCCC21 (stereo partly drawn) | > 100 µM |  | > 100 µM |  | > 100 µM | > 100 µM | > 100 µM | > 100 µM | > 100 µM | > 100 µM |  |
| O=C(/C=C/c1ccccc1)CCc1c(O)c2ccccc2oc1=O | > 100 µM | > 100 µM | > 100 µM | > 100 µM | > 100 µM | > 100 µM | > 100 µM | > 100 µM |  | > 100 µM | > 100 µM |
| COc1ccc(NS(=O)c2cccc(C)c2)cc1 (stereo not drawn) | > 100 µM |  |  | > 100 µM | > 100 µM | 66.7 µM | > 100 µM | > 100 µM | > 100 µM | > 100 µM |  |
| O=C1OC2C=CC1C1(CCOC1=O)C2 (stereo not drawn) | > 100 µM | > 100 µM |  |  | > 100 µM | > 100 µM | > 100 µM | > 100 µM |  | > 100 µM |  |
| CN(C)C=Nc1nncc2n[nH]nc12 | > 100 µM |  |  | > 100 µM | > 100 µM | > 100 µM | > 100 µM | > 100 µM | > 100 µM | > 100 µM | > 100 µM |
| COc1ccc(C2=NNC(=O)c3ccccc3N2c2nc(-c3cccs3)nc3ccc(Br)cc23)cc1 | > 100 µM | > 100 µM | > 100 µM |  | > 100 µM | 39.3 µM | > 100 µM | > 100 µM | > 100 µM | > 100 µM | > 100 µM |
| Cc1cccc(C(O)c2cccnc2)c1O (stereo not drawn) | > 100 µM |  |  | > 100 µM | > 100 µM | > 100 µM | > 100 µM | > 100 µM | > 100 µM | > 100 µM | > 100 µM |
